Measurements taken from patent US20220340633A1 (Adepthera LLC, priority 2016, published 2022).
Entries after “also recorded” stand apart in the source; their conditions may differ. Positions of bridges follow the written chain, without caps; N, C: chain ends. Non-standard residues stand in square brackets, D forms with d. Residues, ends and D or L forms follow the SMILES beside them. *: point of attachment. Palmitoyl = CCCCCCCCCCCCCCCC(=O)*; AEEA = NCCOCCOCC(=O)O

Tests used:
[1] = test system: primary human lymphatic endothelia cells (HLEC); assay: HLEC survival in medium with 0.1% FBS, MTS assay; details: 30, 100, and 300 nM, 72 hrs
Description: The cells were cultured for 72 hrs, and cell viability was assayed with the MTS assay (Promega).

CLR/RAMP2 receptor = target: T1, CLR/RAMP2 receptor (Homo sapiens, UniProt O60895+Q16602); assay: CLR/RAMP2 arrestin receptor activation assay (agonist); assay type: cell-based; details: for Emax: CHO-K1, read-out: CLR/RAMP 2 Max Activity % of positive control, CHO-K1 cells, % of positive control (ADM)
T1 construct: host or cells: CHO-K1 cells
T1 sequence (Q16602 23-461): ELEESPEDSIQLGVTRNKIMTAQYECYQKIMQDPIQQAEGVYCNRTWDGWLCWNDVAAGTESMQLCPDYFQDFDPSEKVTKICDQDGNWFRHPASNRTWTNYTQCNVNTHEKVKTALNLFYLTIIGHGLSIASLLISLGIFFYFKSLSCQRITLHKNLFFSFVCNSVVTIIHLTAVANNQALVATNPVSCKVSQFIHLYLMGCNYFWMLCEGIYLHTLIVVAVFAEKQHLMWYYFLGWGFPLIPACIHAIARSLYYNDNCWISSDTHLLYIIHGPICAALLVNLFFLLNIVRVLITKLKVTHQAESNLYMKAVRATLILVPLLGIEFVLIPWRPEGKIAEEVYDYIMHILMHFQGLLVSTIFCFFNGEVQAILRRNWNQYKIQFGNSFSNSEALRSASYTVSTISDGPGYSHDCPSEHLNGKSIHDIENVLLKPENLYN
T1 sequence (O60895 43-175): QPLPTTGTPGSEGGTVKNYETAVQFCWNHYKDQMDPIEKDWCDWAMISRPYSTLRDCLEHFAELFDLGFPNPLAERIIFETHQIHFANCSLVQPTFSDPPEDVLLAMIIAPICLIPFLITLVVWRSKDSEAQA
Description: Using a receptor activation assay, the dose-dependent stimulatory response of peptide agonists of the present invention on a CLR/RAMP1 receptor, a CLR/RAMP2, or a CLR/RAMP3 receptor complex was determined. A cell line carrying the recombinant CLR/RAMP1, CLR/RAMP2, or a CLR/RAMP3 receptor was employed in the assay. Peptide agonist activities were tested, in duplicate, at 10 different concentrations, starting with 1.0 μM and serially diluted 3-fold, in DMSO. […] The CLR/RAMP1 cAMP, CLR/RAMP2 arrestin assays, and CLR/RAMP3 cAMP (DiscoveRx, Fremont, Calif.) were used.

CLR/RAMP1 receptor = CLR/RAMP1 receptor (Homo sapiens, UniProt O60894+Q16602); assay: CLR/RAMP1 cAMP receptor activation assay (agonist); assay type: cell-based; set-up: host or cells: 1321N1 cells; details: 1321-N1, read-out: CLR/RAMP 1 Max Activity % of positive control, 1321N1 cells; % of positive control (β-CGRP)
CLR/RAMP1 receptor, sequence (Q16602 23-461): as the sequence (Q16602 23-461) above
CLR/RAMP1 receptor, sequence (O60894 27-148): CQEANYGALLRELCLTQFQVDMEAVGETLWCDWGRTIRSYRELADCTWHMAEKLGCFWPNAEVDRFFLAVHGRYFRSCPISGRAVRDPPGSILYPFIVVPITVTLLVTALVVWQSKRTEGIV

| SMILES | HLEC survival (in words) [1] | Emax (CLR/RAMP2 receptor) | Emax (CLR/RAMP1 receptor) | receptor specificity of agonist (CLR/RAMP2 receptor; CLR/RAMP2 versus CLR/RAMP1) |
| --- | --- | --- | --- | --- |
| CSCC[C@H](NC(=O)[C@H](CC(C)C)NC(=O)[C@H](CCC(N)=O)NC(=O)[C@H](Cc1c[nH]c2ccccc12)NC(=O)[C@H](CC(C)C)NC(=O)[C@H](CCCNC(=N)N)NC(=O)[C@H](Cc1c[nH]cn1)NC(=O)[C@H](CO)NC(=O)[C@H](CC(C)C)NC(=O)[C@H](CC(N)=O)NC(=O)[C@H](CCC(N)=O)NC(=O)[C@@H](NC(=O)[C@H](CCC(N)=O)NC(=O)[C@@H]1CSSC[C@H](NC(=O)CNC(=O)[C@@H](NC(C)=O)C(C)C)C(=O)N[C@@H](C(C)C)C(=O)N[C@@H](CC(C)C)C(=O)NCC(=O)N[C@@H]([C@@H](C)O)C(=O)N1)C(C)C)C(=O)NCC(=O)N1CCC[C@H]1C(=O)N[C@@H](C)C(=O)NCC(=O)N[C@@H](CCCNC(=N)N)C(=O)N[C@@H](CCC(N)=O)C(=O)N[C@@H](CC(=O)O)C(=O)N[C@@H](CO)C(=O)N[C@@H](C)C(=O)N1CCC[C@H]1C(=O)N[C@H](C(=O)N[C@@H](CC(=O)O)C(=O)N1CCC[C@H]1C(=O)N[C@@H](CO)C(=O)N[C@@H](CO)C(=O)N1CCC[C@H]1C(=O)N[C@@H](Cc1c[nH]cn1)C(=O)N[C@@H](CO)C(=O)N[C@@H](Cc1ccc(O)cc1)C(N)=O)C(C)C [SEQ ID NO: 52, reference compound] | minimal effects; also recorded: negligible effects | – | – | – |
| CCCCCCCCCCCCCCCC(=O)NCCCC[C@H](NC(=O)COCCOCCN)C(=O)N[C@H]1CSSC[C@@H](C(=O)N[C@H](C(=O)N[C@H](C(=O)N[C@@H](CCC(N)=O)C(=O)N[C@@H](CCCCN)C(=O)N[C@@H](CC(C)C)C(=O)N[C@@H](C)C(=O)N[C@@H](Cc2c[nH]cn2)C(=O)N[C@@H](CCC(N)=O)C(=O)N[C@H](C(=O)N[C@@H](Cc2ccc(O)cc2)C(=O)N[C@@H](CCC(N)=O)C(=O)N[C@@H](Cc2ccccc2)C(=O)N[C@H](C(=O)N[C@@H](CC(=O)O)C(=O)N[C@@H](CCCCN)C(=O)N[C@@H](CC(=O)O)C(=O)N[C@@H](CCCCN)C(=O)N[C@@H](CC(=O)O)C(=O)N[C@@H](CC(N)=O)C(=O)N[C@@H](CO)C(=O)N[C@@H](C)C(=O)N2CCC[C@H]2C(=O)N[C@H](C(=O)N[C@@H](CC(=O)O)C(=O)N2CCC[C@H]2C(=O)N[C@@H](CO)C(=O)N[C@@H](CO)C(=O)N2CCC[C@H]2C(=O)N[C@@H](Cc2c[nH]cn2)C(=O)N[C@@H](CO)C(=O)N[C@@H](Cc2ccc(O)cc2)C(N)=O)C(C)C)[C@@H](C)O)[C@@H](C)CC)C(C)C)[C@@H](C)O)NC(=O)[C@H]([C@@H](C)O)NC(=O)CNC(=O)[C@H](Cc2ccccc2)NC(=O)[C@H](CCCNC(=N)N)NC1=O [SEQ ID NO: 43] (H-[AEEA]K(Palmitoyl)CRFGTCTVQKLAHQIYQFTDKDKDNSAPVDPSSPHSY-NH2; disulfide 3-8) | – | 30% | 39% | – |
| CCCCCCCCCCCCCCCC(=O)NCCCC[C@H](NC(=O)[C@@H](NC(C)=O)[C@@H](C)O)C(=O)N[C@@H](CCCCN)C(=O)N[C@H](C(=O)N[C@@H](CC(C)C)C(=O)N[C@@H](CCCNC(=N)N)C(=O)N[C@H](C(=O)NCC(=O)N[C@H]1CSSC[C@@H](C(=O)N[C@H](C(=O)N[C@H](C(=O)N[C@@H](CCC(N)=O)C(=O)N[C@@H](CCCCN)C(=O)N[C@@H](CC(C)C)C(=O)N[C@@H](C)C(=O)N[C@@H](Cc2c[nH]cn2)C(=O)N[C@@H](CCC(N)=O)C(=O)N[C@H](C(=O)N[C@@H](Cc2ccc(O)cc2)C(=O)N[C@@H](CCC(N)=O)C(=O)N[C@@H](Cc2ccccc2)C(=O)N[C@H](C(=O)N[C@@H](CC(=O)O)C(=O)N[C@@H](CCCCN)C(=O)N[C@@H](CC(=O)O)C(=O)N[C@@H](CCCCN)C(=O)N[C@@H](CC(=O)O)C(=O)N[C@@H](CC(N)=O)C(=O)N[C@@H](CO)C(=O)N[C@@H](C)C(=O)N2CCC[C@H]2C(=O)N[C@H](C(=O)N[C@@H](CC(=O)O)C(=O)N2CCC[C@H]2C(=O)N[C@@H](CO)C(=O)N[C@@H](CO)C(=O)N2CCC[C@H]2C(=O)N[C@@H](Cc2c[nH]cn2)C(=O)N[C@@H](CO)C(=O)N[C@@H](Cc2ccc(O)cc2)C(N)=O)C(C)C)[C@@H](C)O)[C@@H](C)CC)C(C)C)[C@@H](C)O)NC(=O)[C@H]([C@@H](C)O)NC(=O)CNC(=O)[C@H](Cc2ccccc2)NC(=O)[C@H](CCCNC(=N)N)NC1=O)[C@@H](C)O)[C@@H](C)O [SEQ ID NO: 39] | dose-dependently stimulated; also recorded: significantly promote | – | – | – |
| CCCCCCCCCCCCCCCC(=O)NCCCC[C@H](NC(=O)COCCOCCN)C(=O)NCC(=O)N[C@H]1CSSC[C@@H](C(=O)N[C@H](C(=O)N[C@H](C(=O)N[C@@H](CCC(N)=O)C(=O)N[C@@H](CCCCN)C(=O)N[C@@H](CC(C)C)C(=O)N[C@@H](C)C(=O)N[C@@H](Cc2c[nH]cn2)C(=O)N[C@@H](CCC(N)=O)C(=O)N[C@H](C(=O)N[C@@H](Cc2ccc(O)cc2)C(=O)N[C@@H](CCC(N)=O)C(=O)N[C@@H](Cc2ccccc2)C(=O)N[C@H](C(=O)N[C@@H](CC(=O)O)C(=O)N[C@@H](CCCCN)C(=O)N[C@@H](CC(=O)O)C(=O)N[C@@H](CCCCN)C(=O)N[C@@H](CC(=O)O)C(=O)N[C@@H](CC(N)=O)C(=O)N[C@H](C(=O)N[C@@H](CC(=O)O)C(=O)N2CCC[C@H]2C(=O)N[C@@H](CO)C(=O)N[C@@H](CO)C(=O)N2CCC[C@H]2C(=O)N[C@@H](Cc2c[nH]cn2)C(=O)N[C@@H](CO)C(=O)N[C@@H](Cc2ccc(O)cc2)C(N)=O)C(C)C)[C@@H](C)O)[C@@H](C)CC)C(C)C)[C@@H](C)O)NC(=O)[C@H]([C@@H](C)O)NC(=O)CNC(=O)[C@H](Cc2ccccc2)NC(=O)[C@H](CCCNC(=N)N)NC1=O [SEQ ID NO: 94] | – | 82% | 67% | CLR/RAMP2-specific |
| CCCCCCCCCCCCCCCC(=O)NCCCC[C@H](NC(=O)[C@@H](NC(=O)COCCOCCN)[C@@H](C)O)C(=O)N[C@@H](CCCCN)C(=O)N[C@H](C(=O)N[C@@H](CC(C)C)C(=O)N[C@@H](CCCNC(=N)N)C(=O)N[C@H](C(=O)NCC(=O)N[C@H]1CSSC[C@@H](C(=O)N[C@H](C(=O)N[C@H](C(=O)N[C@@H](CCC(N)=O)C(=O)N[C@@H](CCCCN)C(=O)N[C@@H](CC(C)C)C(=O)N[C@@H](C)C(=O)N[C@@H](Cc2c[nH]cn2)C(=O)N[C@@H](CCC(N)=O)C(=O)N[C@H](C(=O)N[C@@H](Cc2ccc(O)cc2)C(=O)N[C@@H](CCC(N)=O)C(=O)N[C@@H](Cc2ccccc2)C(=O)N[C@H](C(=O)N[C@@H](CC(=O)O)C(=O)N[C@@H](CCCCN)C(=O)N[C@@H](CC(=O)O)C(=O)N[C@@H](CCCCN)C(=O)N[C@@H](CC(=O)O)C(=O)N[C@@H](CC(N)=O)C(=O)N[C@H](C(=O)N[C@@H](C)C(=O)N2CCC[C@H]2C(=O)N[C@H](C(=O)N[C@@H](CC(=O)O)C(=O)N2CCC[C@H]2C(=O)N[C@@H](CO)C(=O)N[C@@H](CO)C(=O)N2CCC[C@H]2C(=O)N[C@@H](Cc2c[nH]cn2)C(=O)N[C@@H](CO)C(=O)N[C@@H](Cc2ccc(O)cc2)C(N)=O)C(C)C)C(C)C)[C@@H](C)O)[C@@H](C)CC)C(C)C)[C@@H](C)O)NC(=O)[C@H]([C@@H](C)O)NC(=O)CNC(=O)[C@H](Cc2ccccc2)NC(=O)[C@H](CCCNC(=N)N)NC1=O)[C@@H](C)O)[C@@H](C)O [SEQ ID NO: 42] | – | 76% | 56% | – |
